Source: patent US7253306B2, “Pharmaceutical drug candidates and methods for preparation thereof” (Neurochem (International) Limited, priority 2003, dated 2007)

Assay: Partition coefficient water/toluene
Assay type: physicochemical

O=S1(=O)CCCO1 [1,3-propane sultone]
partition coefficient for water/toluene: 1.4
